In BindingDB's records for patent US20240059711 (University of Michigan, 2024):

Molecular target: Protein cereblon (Homo sapiens, UniProt Q96SW2)
Assay: Cereblon Binding Assay
Experimental: The binding to cereblon (CRBN) was determined using the Cereblon Binding Kit (Cisbio, #64BDCRBNPEG) following the manufacturer's instruction. Briefly, serially diluted compounds were incubated with GST-tagged wild-type human CRBN protein, XL665-labelled Thalidomide and Europium Cryptate labelled GST antibody at room temperature for about 3 hours. Time Resolved Fluorescence Resonance Energy Transfer (TR-FRET) measurements were acquired on a CALRIOstar plate reader with MARS data analysis software (BMG Labtech), with the following settings: 665/10 nm and 620/10 nm emission, 60 μs delay and 400 μs integration. The TR-FRET ratio was taken as the 665/620 nm intensity ratio.

Protein cereblon, sequence (Q96SW2 whole entry): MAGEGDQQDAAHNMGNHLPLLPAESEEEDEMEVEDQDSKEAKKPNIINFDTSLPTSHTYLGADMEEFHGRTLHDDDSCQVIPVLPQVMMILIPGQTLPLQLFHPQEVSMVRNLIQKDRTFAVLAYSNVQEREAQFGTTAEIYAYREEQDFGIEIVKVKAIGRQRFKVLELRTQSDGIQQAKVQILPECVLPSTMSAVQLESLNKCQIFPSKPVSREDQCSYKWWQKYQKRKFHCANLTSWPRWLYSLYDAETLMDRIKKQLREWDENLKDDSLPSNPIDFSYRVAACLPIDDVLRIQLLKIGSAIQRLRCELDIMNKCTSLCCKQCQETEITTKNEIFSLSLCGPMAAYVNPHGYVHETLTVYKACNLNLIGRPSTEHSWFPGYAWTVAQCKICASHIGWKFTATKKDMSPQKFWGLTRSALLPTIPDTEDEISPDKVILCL

SMILES | IC50 [nM]
O=C1CCC(N2Cc3c(ccc4c3O[C@H](COCc3ccccc3)CO4)C2=O)C(=O)N1 (some centres not stated) [US20240059711, Compound B10] | 800
O=C1CCC(N2Cc3c(ccc4c3O[C@@H](COCc3ccccc3)CO4)C2=O)C(=O)N1 (some centres not stated) [US20240059711, Compound B9] | 580
